Measurements: patent US6699884B2, “Fluoro-substituted benzenesulfonyl compounds for the treatment of inflammation” (Pharmacia Corporation, priority 2001, dated 2004)

Experiments:
[1] = molecular target: T1, Human COX-1 (Homo sapiens, UniProt P23219); assay: Fast assay for COX-1 activity (PGE2 formed, ELISA); type: biochemical; settings: recombinant enzyme in CHAPS-solubilized insect cell membranes; 10 min pre-incubation at 25° C.; 10 μM arachidonic acid
T1 construct: A 2.0 kb fragment containing the coding region of either human or murine COX-1 or human or murine COX-2; made in house; host or cells: SF9 insect cells (baculovirus, pVL1393)
Method: Recombinant baculoviruses were isolated by transfecting 4 μg of baculovirus transfer vector DNA into SF9 insect cells (2×10^8) along with 200 ng of linearized baculovirus plasmid DNA by the calcium phosphate method. See M. D. Summers and G. E. Smith, A Manual of Methods for Baculovirus Vectors and Insect Cell Culture Procedures, Texas Agric. Exp. Station Bull. […] Recombinant viruses were purified by three rounds of plaque purification and high titer (10^7-10^8 pfu/mL) stocks of virus were prepared. For large scale production, SF9 insect cells were infected in 10 liter fermentors (0.5×10^6/mL) with the recombinant baculovirus stock such that the multiplicity of infection was 0.1. After 72 hours the cells were centrifuged and the cell pellet homogenized in Tris/Sucrose (50 mM: 25%, pH 8.0) containing 1% 3-[(3-cholamidopropyl)dimethylammonio]-1-propanesulfonate (CHAPS). The homogenate was centrifuged at 10,000×G for 30 minutes, and the resultant supernatant was stored at −80° C. before being assayed for COX activity.
COX activity was assayed as PGE2 formed/μg protein/time using an ELISA to detect the prostaglandin released. CHAPS-solubilized insect cell membranes containing the appropriate COX enzyme were incubated in a potassium phosphate buffer (50 mM, pH 8.0) containing epinephrine, phenol, and heme with the addition of arachidonic acid (10 μM). Compounds were pre-incubated with the enzyme for 10-20 minutes prior to the addition of arachidonic acid. Any reaction between the arachidonic acid and the enzyme was stopped after ten minutes at 37° C. room temperature by transferring 40 μl of reaction mix into 160 μl ELISA buffer and 25 μM indomethacin. The PGE2 formed was measured by standard ELISA technology (Cayman Chemical).
COX activity was assayed as PGE2 formed/μg protein/time using an ELISA to detect the prostaglandin released. […] Compounds were pre-incubated with the enzyme for 10 minutes at 25° C. prior to the addition of arachidonic acid. Any reaction between the arachidonic acid and the enzyme was stopped after two minutes at 37° C./room temperature by transferring 40 μl of reaction mix into 160 μl ELISA buffer and 25 μM indomethacin. The PGE2 formed was measured by standard ELISA technology (Cayman Chemical).

[2] = molecular target: T2, Human COX-2 (Homo sapiens, UniProt P35354); assay: Fast assay for COX-2 activity (PGE2 formed, ELISA); type: biochemical; settings: recombinant enzyme in CHAPS-solubilized insect cell membranes; 10 min pre-incubation at 25° C.; 10 μM arachidonic acid
T2 construct: A 2.0 kb fragment containing the coding region of either human or murine COX-1 or human or murine COX-2; made in house; host or cells: SF9 insect cells (baculovirus, pVL1393)
T2 sequence (P35354 18-604): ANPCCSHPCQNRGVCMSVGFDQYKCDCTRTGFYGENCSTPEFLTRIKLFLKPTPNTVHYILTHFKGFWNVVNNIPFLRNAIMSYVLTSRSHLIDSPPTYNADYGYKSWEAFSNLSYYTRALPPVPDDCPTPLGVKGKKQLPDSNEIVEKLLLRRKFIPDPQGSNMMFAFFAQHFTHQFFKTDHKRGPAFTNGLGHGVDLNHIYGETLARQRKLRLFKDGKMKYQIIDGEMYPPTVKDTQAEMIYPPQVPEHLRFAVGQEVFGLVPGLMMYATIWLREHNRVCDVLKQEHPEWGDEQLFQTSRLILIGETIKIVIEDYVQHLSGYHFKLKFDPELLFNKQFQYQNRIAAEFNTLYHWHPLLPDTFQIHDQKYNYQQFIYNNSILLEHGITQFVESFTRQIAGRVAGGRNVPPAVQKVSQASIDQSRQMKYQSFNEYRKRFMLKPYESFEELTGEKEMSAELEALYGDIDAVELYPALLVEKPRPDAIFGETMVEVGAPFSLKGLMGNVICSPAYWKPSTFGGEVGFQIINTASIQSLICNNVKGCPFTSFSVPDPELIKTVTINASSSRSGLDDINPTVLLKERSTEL

| Structure (SMILES) | IC50 [1] | IC50 [2] |
| --- | --- | --- |
| CS(=O)(=O)c1cc(F)c(-c2cc(C(F)(F)F)nn2-c2ccc(Cl)cc2)cc1F [Example 7, 1-(4-chlorophenyl)-5-[2,5-difluoro-4-(methylsulfonyl)-phenyl]-3-(trifluoromethyl)-1H-pyrazole] | 56.7 µM | 0.09 µM |
| Cc1onc(-c2ccccc2)c1-c1cc(F)c(S(C)(=O)=O)c(F)c1 [Example 14, 4-[3,5-difluoro-4-(methylsulfonyl)phenyl]-5-methyl-3-phenylisoxazole] | > 100 µM |  |
| Cc1ccc(-n2nc(C(F)(F)F)cc2-c2cc(F)c(S(C)(=O)=O)c(F)c2)cc1Cl [Example 6, 1-(3-chloro-4-methylphenyl)-5-[3,5-difluoro-4-(methylsulfonyl)phenyl]-3-(trifluoromethyl)-1H-pyrazole] | > 100 µM | 0.09 µM |
| CS(=O)(=O)c1c(F)cc(-c2cc(C(F)(F)F)nn2-c2ccc(F)cc2)cc1F [Example 1, 5-[3,5-difluoro-4-(methylsulfonyl)phenyl]-1-(4-fluorophenyl)-3-(trifluoromethyl)-1H-pyrazole] | > 100 µM | 3.44 µM |
| Cc1onc(-c2ccccc2)c1-c1cc(F)c(S(N)(=O)=O)c(F)c1 [Example 15, 2,6-difluoro-4-(5-methyl-3-phenylisoxazol-4-yl)benzene-sulfonamide] | > 100 µM | 0.12 µM |
| CS(=O)(=O)c1c(F)cc(-c2cc(C(F)(F)F)nn2-c2ccc(OC(F)(F)F)cc2)cc1F [Example 4, 5-[3,5-difluoro-4-(methylsulfonyl)phenyl]-1-[4-(trifluoromethoxy)phenyl]-3-(trifluoromethyl)-1H-pyrazole] | > 100 µM | 0.1 µM |
| Cc1ccc(-n2nc(C(F)F)cc2-c2cc(F)c(S(C)(=O)=O)c(F)c2)cc1Cl [Example 2, 1-(3-chloro-4-methylphenyl)-3-(difluoromethyl)-5-[3,5-difluoro-4-(methylsulfonyl)phenyl]-1H-pyrazole] | > 100 µM | 0.55 µM |
| CS(=O)(=O)c1c(F)cc(-c2cc(C(F)F)nn2C2CCCCC2)cc1F [Example 5, 1-cyclohexyl-3-(difluoromethyl)-5-[3,5-difluoro-4-(methylsulfonyl)phenyl]-1H-pyrazole] | > 100 µM |  |
| COc1ccc(-n2nc(C(F)(F)F)cc2-c2cc(F)c(S(C)(=O)=O)cc2F)cc1 [Example 8, 5-[2,5-difluoro-4-(methylsulfonyl)phenyl]-1-(4-methoxyphenyl)-3-(trifluoromethyl)-1H-pyrazole] | 14.8 µM | 0.25 µM |
| CS(=O)(=O)c1c(F)cc(-c2cc(C(F)(F)F)nn2-c2cccc(C(F)(F)F)c2)cc1F [Example 3, 5-[3,5-difluoro-4-(methylsulfonyl)phenyl]-3-(trifluoromethyl)-1-[3-(trifluoromethyl)phenyl]-1H-pyrazole] | > 100 µM | 0.3 µM |
